From US12492188B2, “1H-benzo[D]imidazole derivatives as TLR9 inhibitors for the treatment of fibrosis” (BRISTOL-MYERS SQUIBB COMPANY, priority 2020, dated 2025)
Where two headings read alike, the source gives them in different places.

Key:
Type in all cases: cell-based
[1] = molecular target: T1, human TLR9 (Homo sapiens, UniProt Q9NR96); test: TLR9 inhibition reporter assay (HEK-Blue cells, secreted embryonic alkaline phosphatase reporter)
T1 construct: host or cells: HEK-Blue cells (HEK293-derived reporter line)
T1 sequence (Q9NR96 26-1032): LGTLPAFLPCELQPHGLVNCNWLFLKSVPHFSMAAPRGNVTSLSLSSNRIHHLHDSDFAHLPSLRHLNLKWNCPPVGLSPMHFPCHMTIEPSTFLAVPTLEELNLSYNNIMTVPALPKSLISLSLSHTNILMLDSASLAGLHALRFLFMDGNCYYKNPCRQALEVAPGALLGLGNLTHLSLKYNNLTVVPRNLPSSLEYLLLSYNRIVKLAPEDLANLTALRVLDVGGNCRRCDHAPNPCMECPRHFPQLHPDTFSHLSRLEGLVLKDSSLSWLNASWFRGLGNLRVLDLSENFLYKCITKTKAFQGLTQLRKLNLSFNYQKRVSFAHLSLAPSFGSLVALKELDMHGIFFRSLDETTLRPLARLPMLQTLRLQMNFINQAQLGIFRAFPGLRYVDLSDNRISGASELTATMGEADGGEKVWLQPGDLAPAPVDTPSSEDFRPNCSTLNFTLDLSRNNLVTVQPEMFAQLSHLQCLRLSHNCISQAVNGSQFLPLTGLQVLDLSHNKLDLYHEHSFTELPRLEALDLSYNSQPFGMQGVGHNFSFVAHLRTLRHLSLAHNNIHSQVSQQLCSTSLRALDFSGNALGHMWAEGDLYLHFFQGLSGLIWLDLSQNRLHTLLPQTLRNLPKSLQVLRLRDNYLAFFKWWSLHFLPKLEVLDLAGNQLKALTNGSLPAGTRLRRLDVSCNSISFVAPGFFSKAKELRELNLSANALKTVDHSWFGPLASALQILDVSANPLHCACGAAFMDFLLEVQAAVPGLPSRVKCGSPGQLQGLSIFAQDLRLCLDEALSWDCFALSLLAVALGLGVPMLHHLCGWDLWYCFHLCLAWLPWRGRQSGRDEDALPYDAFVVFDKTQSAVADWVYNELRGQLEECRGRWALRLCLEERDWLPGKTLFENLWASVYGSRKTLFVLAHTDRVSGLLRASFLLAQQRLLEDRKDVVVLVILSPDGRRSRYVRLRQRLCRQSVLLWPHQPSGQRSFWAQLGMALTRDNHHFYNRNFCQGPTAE
Summary of the method: (§1)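 Agonist-driven SEAP output was measured in HEK-Blue reporter cells carrying human TLR7 (gardiquimod 7.5 μM), TLR8 (R848 15.9 μM) or TLR9 (ODN2006 5 nM). Compounds at 0.05 nM–50 μM final were added 30 min before stimulation at room temperature. After 22 h at 37 °C, percent inhibition was taken against agonist/DMSO wells and a reference inhibitor.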

[2] = molecular target: T2, human TLR7 (Homo sapiens, UniProt Q9NYK1); test: TLR7 inhibition reporter assay (HEK-Blue cells, secreted embryonic alkaline phosphatase reporter); details: HEK-Blue cells overexpressing human TLR7, stimulated with gardiquimod 7.5 μM; read-out: TLR 7 IC50
T2 construct: host or cells: HEK-Blue cells (HEK293-derived reporter line)
T2 sequence (Q9NYK1 27-1049): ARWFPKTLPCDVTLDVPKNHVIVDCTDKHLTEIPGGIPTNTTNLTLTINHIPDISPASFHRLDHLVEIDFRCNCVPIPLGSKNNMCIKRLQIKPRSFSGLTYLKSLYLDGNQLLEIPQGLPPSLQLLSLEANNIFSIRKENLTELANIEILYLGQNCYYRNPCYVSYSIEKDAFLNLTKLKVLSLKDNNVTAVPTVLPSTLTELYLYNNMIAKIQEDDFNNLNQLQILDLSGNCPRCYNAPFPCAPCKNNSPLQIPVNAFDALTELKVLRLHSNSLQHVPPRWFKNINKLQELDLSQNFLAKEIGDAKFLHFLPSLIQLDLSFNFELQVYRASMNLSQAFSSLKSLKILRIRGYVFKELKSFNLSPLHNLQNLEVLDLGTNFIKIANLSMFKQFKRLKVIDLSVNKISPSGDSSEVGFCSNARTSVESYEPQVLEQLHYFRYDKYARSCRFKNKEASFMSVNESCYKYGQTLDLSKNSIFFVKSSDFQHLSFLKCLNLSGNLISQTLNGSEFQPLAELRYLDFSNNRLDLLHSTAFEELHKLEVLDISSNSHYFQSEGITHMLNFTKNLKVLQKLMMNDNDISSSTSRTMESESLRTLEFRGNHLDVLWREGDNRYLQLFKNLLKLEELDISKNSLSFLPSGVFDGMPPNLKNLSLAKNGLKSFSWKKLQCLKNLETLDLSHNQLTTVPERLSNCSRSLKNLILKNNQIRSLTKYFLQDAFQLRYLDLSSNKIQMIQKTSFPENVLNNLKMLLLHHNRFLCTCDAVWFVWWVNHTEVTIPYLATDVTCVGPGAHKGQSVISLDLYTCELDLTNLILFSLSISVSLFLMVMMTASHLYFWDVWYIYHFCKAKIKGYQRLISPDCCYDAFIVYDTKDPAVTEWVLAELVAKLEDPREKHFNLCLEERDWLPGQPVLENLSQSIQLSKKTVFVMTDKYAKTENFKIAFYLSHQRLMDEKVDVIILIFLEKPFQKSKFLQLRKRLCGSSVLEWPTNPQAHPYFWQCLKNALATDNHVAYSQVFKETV
Summary of the method: as §1

[3] = molecular target: T3, human TLR8 (Homo sapiens, UniProt Q9NR97); test: TLR8 inhibition reporter assay (HEK-Blue cells, secreted embryonic alkaline phosphatase reporter); details: HEK-Blue cells overexpressing human TLR8, stimulated with R848 15.9 μM; read-out: TLR 8 IC50
T3 construct: host or cells: HEK-Blue cells (HEK293-derived reporter line)
T3 sequence (Q9NR97 27-1041): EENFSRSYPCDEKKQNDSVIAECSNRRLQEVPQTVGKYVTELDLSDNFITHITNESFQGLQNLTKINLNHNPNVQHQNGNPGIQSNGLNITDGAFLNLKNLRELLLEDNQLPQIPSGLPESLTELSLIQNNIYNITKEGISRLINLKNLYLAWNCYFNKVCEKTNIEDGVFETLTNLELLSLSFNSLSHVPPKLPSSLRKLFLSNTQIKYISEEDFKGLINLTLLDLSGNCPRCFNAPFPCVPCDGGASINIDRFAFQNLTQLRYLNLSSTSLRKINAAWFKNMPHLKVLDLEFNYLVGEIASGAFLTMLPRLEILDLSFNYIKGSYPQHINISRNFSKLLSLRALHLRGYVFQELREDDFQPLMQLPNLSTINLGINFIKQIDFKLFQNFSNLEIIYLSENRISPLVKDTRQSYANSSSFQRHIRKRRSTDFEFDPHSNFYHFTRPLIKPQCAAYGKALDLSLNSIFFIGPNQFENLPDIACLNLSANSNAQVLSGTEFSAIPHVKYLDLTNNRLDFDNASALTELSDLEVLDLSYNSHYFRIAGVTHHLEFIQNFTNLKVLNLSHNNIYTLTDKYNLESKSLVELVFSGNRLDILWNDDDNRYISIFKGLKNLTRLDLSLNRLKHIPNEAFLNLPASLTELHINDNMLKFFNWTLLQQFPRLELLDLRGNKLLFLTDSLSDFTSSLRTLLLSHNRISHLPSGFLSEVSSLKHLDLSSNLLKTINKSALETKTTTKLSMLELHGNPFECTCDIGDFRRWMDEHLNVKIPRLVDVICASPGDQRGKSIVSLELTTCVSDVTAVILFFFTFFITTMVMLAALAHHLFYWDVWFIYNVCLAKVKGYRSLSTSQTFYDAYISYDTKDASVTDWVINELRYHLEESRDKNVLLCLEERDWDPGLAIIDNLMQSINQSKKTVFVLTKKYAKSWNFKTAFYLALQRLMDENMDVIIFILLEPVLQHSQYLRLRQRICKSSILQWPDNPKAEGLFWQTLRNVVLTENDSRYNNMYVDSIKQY
Summary of the method: as §1

Structure (SMILES) | IC50 ([1]; HEK-Blue cells overexpressing human TLR9, stimulated with ODN2006 5 nM, read-out: TLR 9 IC50) | IC50 ([1]; HEK-Blue human TLR9 reporter cells) | IC50 [2] | IC50 [3] | IC50 ([1]; HEK-Blue cells overexpressing human TLR9, stimulated with ODN2006 5 nM, 22 hour incubation, reporter readout)
CS(=O)(=O)c1ccc(-c2nc3c(F)cc(C4CCN(C5CCN(C6CCOCC6)CC5)CC4)cc3n2C2CC2)cc1 [Example 321, 1-cyclopropyl-4-fluoro-2-(4-(methylsulfonyl)phenyl)-6-(1′-(tetrahydro-2H-pyran-4-yl)-[1,4′-bipiperidin]-4-yl)-1H-benzo[d]imidazole] | 36 nM | 36 nM | 1900 nM | > 50000 nM | 
CC(C)N1C2CCC1CC(N1CCC(c3cc4nc(-c5ccc(S(C)(=O)=O)cc5)n(C)c4cc3F)CC1)C2 (single isomer, unassigned) [Example 100, 6-fluoro-5-(1-(8-isopropyl-8-azabicyclo[3.2.1]octan-3-yl)piperidin-4-yl)-1-methyl-2-(4-(methylsulfonyl)phenyl)-1H-benzo[d]imidazole] |  |  | 39900 nM | > 50000 nM | 62 nM
